Reference: PubChem BioAssay AID330 (DTP/NCI, 2004)
Several values for one entry are separate records, joined by “and”; a condition that tells them apart may be missing. Equal entries are not always repeated. Toxic doses and inconclusive results are not listed.

System: P388 leukemia ip, CD2F1 mice, survival T/C
Test: NCI In Vivo Anticancer Drug Screen. Data for tumor model P388 Leukemia (intraperitoneal) in CD2F1 (CDF1) mice
Conditions: endpoint: median survival time, higher = longer survival
Summary of the method: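 Mice carrying the transplanted tumor received test compound or vehicle. Survival was recorded in each group, and the value is the treated-group measurement divided by that of the vehicle-treated control group.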

[1] = dose: 100.0 mg/kg/injection, schedule: Q01DX009 (ip), vehicle: saline
[2] = dose: 200.0 mg/kg/injection, schedule: Q01DX009 (ip), vehicle: saline
[3] = dose: 25.0 mg/kg/injection, schedule: Q01DX009 (ip), vehicle: saline with Tween-80
[4] = dose: 50.0 mg/kg/injection, schedule: Q01DX009 (ip), vehicle: saline with Tween-80
[5] = dose: 100.0 mg/kg/injection, schedule: Q01DX009 (ip), vehicle: saline with Tween-80
[6] = dose: 50.0 mg/kg/injection, schedule: Q01DX005 (ip), vehicle: saline with Tween-80
[7] = dose: 100.0 mg/kg/injection, schedule: Q01DX005 (ip), vehicle: saline with Tween-80
[8] = dose: 200.0 mg/kg/injection, schedule: Q01DX005 (ip), vehicle: saline with Tween-80
[9] = dose: 50.0 mg/kg/injection, schedule: Q01DX005 (ip), vehicle: Klucel (hydroxypropylcellulose) (HPC)
[10] = dose: 100.0 mg/kg/injection, schedule: Q01DX005 (ip), vehicle: Klucel (hydroxypropylcellulose) (HPC)
[11] = dose: 200.0 mg/kg/injection, schedule: Q01DX005 (ip), vehicle: Klucel (hydroxypropylcellulose) (HPC)
[12] = dose: 60.0 mg/kg/injection, schedule: Q01DX005 (ip), vehicle: saline with Tween-80
[13] = dose: 120.0 mg/kg/injection, schedule: Q01DX005 (ip), vehicle: saline with Tween-80
[14] = dose: 240.0 mg/kg/injection, schedule: Q01DX005 (ip), vehicle: saline with Tween-80
[15] = dose: 50.0 mg/kg/injection, schedule: Q01DX009 (ip), vehicle: saline
[16] = dose: 200.0 mg/kg/injection, schedule: Q01DX009 (ip), vehicle: saline with Tween-80

SMILES: O=C(C=C(C(F)(F)F)C(F)(F)F)c1cccc([N+](=O)[O-])c1
- T/C (dose: 6.25 mg/kg/injection, schedule: Q04DX003 (ip), vehicle: saline with Tween-80): 104 % of control
- T/C (dose: 12.5 mg/kg/injection, schedule: Q04DX003 (ip), vehicle: saline with Tween-80): 104 % of control
- T/C (dose: 25.0 mg/kg/injection, schedule: Q04DX003 (ip), vehicle: saline with Tween-80): 100 % of control

SMILES: O=c1[nH]nnc2nc(N3CCOCC3)sc12
- T/C (dose: 100.0 mg/kg/injection, schedule: Q01DX001 (ip), vehicle: saline with Tween-80): 103 % of control and 95 % of control
- T/C (dose: 200.0 mg/kg/injection, schedule: Q01DX001 (ip), vehicle: saline with Tween-80): 102 % of control and 104 % of control
- T/C (dose: 300.0 mg/kg/injection, schedule: Q01DX001 (ip), vehicle: saline with Tween-80): 100 % of control

SMILES: C#CCN(C)CCO
- T/C [1]: 111 % of control
- T/C [2]: 111 % of control
- T/C (dose: 400.0 mg/kg/injection, schedule: Q01DX009 (ip), vehicle: saline): 116 % of control

SMILES: O=C(NC1CC1)OCc1c(COC(=O)NC2CC2)c(-c2ccc(Cl)c(Cl)c2)n2c1CCC2
- T/C (dose: 6.25 mg/kg/injection, schedule: Q01DX009 (ip), vehicle: distilled water + Tween-80): 160 % of control
- T/C (dose: 12.5 mg/kg/injection, schedule: Q01DX009 (ip), vehicle: distilled water + Tween-80): 171 % of control and 183 % of control
- T/C (dose: 25.0 mg/kg/injection, schedule: Q01DX009 (ip), vehicle: distilled water + Tween-80): 101 % of control and 206 % of control

SMILES: CC(C)(C)SC(=O)CC(O)(c1ccccc1)c1ccccc1
- T/C (dose: 100.0 mg/kg/injection, schedule: Q04DX003 (ip), vehicle: Klucel (hydroxypropylcellulose) (HPC)): 115 % of control
- T/C (dose: 200.0 mg/kg/injection, schedule: Q04DX003 (ip), vehicle: Klucel (hydroxypropylcellulose) (HPC)): 106 % of control
- T/C (dose: 400.0 mg/kg/injection, schedule: Q04DX003 (ip), vehicle: Klucel (hydroxypropylcellulose) (HPC)): 95 % of control

SMILES: NNC(=O)C(N)=O
- T/C (dose: 12.5 mg/kg/injection, schedule: Q01DX009 (ip), vehicle: saline with Tween-80): 100 % of control
- T/C [3]: 104 % of control
- T/C [4]: 100 % of control
- T/C [5]: 97 % of control

SMILES: CCOc1c(N=Nc2ccccc2OC)c(-c2ccccc2)nn1C(=S)S
- T/C [6]: 102 % of control
- T/C [7]: 101 % of control
- T/C [8]: 108 % of control

SMILES: COC(=O)/C(C#N)=C/c1ccc(NC(C)=O)cc1
- T/C [9]: 93 % of control
- T/C [10]: 94 % of control
- T/C [11]: 88 % of control

SMILES: COc1cc(C2c3cc(OS(=O)(=O)c4ccc(C)cc4)c(OC)cc3CC3C(=O)OCC32)ccc1OS(=O)(=O)c1ccc(C)cc1 (stereo not drawn)
- T/C [6]: 91 % of control and 92 % of control
- T/C [7]: 91 % of control
- T/C [8]: 91 % of control

SMILES: C=Cc1cc[n+](CC(=O)c2ccccc2)cc1
- T/C (dose: 3.12 mg/kg/injection, schedule: Q01DX009 (ip), vehicle: saline): 90 % of control
- T/C (dose: 6.25 mg/kg/injection, schedule: Q01DX009 (ip), vehicle: saline): 90 % of control
- T/C (dose: 12.5 mg/kg/injection, schedule: Q01DX009 (ip), vehicle: saline): 103 % of control and 90 % of control

SMILES: Nc1nnc(CCC(=O)Nc2ccccc2Cl)o1
- T/C [12]: 98 % of control
- T/C [13]: 101 % of control
- T/C [14]: 97 % of control

SMILES: CCCCCCCCCCCC(=O)CCCC
- T/C (dose: 100.0 mg/kg/injection, schedule: Q04DX003 (ip), vehicle: other): 104 % of control
- T/C (dose: 200.0 mg/kg/injection, schedule: Q04DX003 (ip), vehicle: other): 113 % of control
- T/C (dose: 400.0 mg/kg/injection, schedule: Q04DX003 (ip), vehicle: other): 118 % of control

SMILES: COc1ccc2c(c1)C13CCCCC1C(C2)N(C)CC3 (stereo not drawn)
- T/C (dose: 12.5 mg/kg/injection, schedule: Q01DX005 (ip), vehicle: saline with Tween-80): 94 % of control
- T/C (dose: 25.0 mg/kg/injection, schedule: Q01DX005 (ip), vehicle: saline with Tween-80): 100 % of control
- T/C [6]: 100 % of control
- T/C (dose: 50.0 mg/kg/injection, schedule: Q01DX005 (ip), vehicle: saline): 99 % of control

SMILES: CC(C)(C)N(N)Cc1ccccc1
- T/C (dose: 25.0 mg/kg/injection, schedule: Q01DX009 (ip), vehicle: saline): 99 % of control
- T/C [15]: 104 % of control
- T/C [1]: 104 % of control

SMILES: Cc1cc(=O)c2cc3nc(-c4cccnc4)oc3c(Br)c2o1
- T/C [9]: 97 % of control
- T/C [10]: 96 % of control
- T/C [11]: 88 % of control

SMILES: CN(O)C(=O)CCCCCCCCC(=O)N(C)O
- T/C [12]: 103 % of control
- T/C [13]: 105 % of control
- T/C [14]: 114 % of control

SMILES: CCOc1ccc2nc3ccccc3c(N)c2c1
- T/C (dose: 7.5 mg/kg/injection, schedule: Q01DX005 (ip), vehicle: saline with Tween-80): 103 % of control and 112 % of control
- T/C (dose: 15.0 mg/kg/injection, schedule: Q01DX005 (ip), vehicle: saline with Tween-80): 113 % of control
- T/C (dose: 30.0 mg/kg/injection, schedule: Q01DX005 (ip), vehicle: saline with Tween-80): 124 % of control

SMILES: Clc1ccc2c(Cl)ncnc2c1
- T/C [4]: 104 % of control
- T/C [5]: 100 % of control
- T/C [16]: 90 % of control

SMILES: COc1cccc2c1C(=O)c1c(O)c3c(c(O)c1C2=O)C[C@@](O)(C(C)NCCCO)C[C@@H]3OC1CC(N)C(O)C(C)O1 (stereo partly drawn)
- T/C (dose: 0.5 mg/kg/injection, schedule: Q01DX009 (ip), vehicle: water): 122 % of control
- T/C (dose: 1.0 mg/kg/injection, schedule: Q01DX009 (ip), vehicle: water): 150 % of control
- T/C (dose: 2.0 mg/kg/injection, schedule: Q01DX009 (ip), vehicle: water): 154 % of control and 163 % of control
- T/C (dose: 4.0 mg/kg/injection, schedule: Q01DX009 (ip), vehicle: water): 163 % of control and 173 % of control
- T/C (dose: 8.0 mg/kg/injection, schedule: Q01DX009 (ip), vehicle: water): 174 % of control and 175 % of control
- T/C (dose: 16.0 mg/kg/injection, schedule: Q01DX009 (ip), vehicle: water): 201 % of control

SMILES: CC1=CC(c2c(O)cc(O)c(C(=O)CCc3ccccc3)c2O)C(C(C)C)CC1 (stereo not drawn)
- T/C (dose: 3.75 mg/kg/injection, schedule: Q01DX005 (ip), vehicle: Klucel + Tween-80): 94 % of control
- T/C (dose: 7.5 mg/kg/injection, schedule: Q01DX005 (ip), vehicle: Klucel + Tween-80): 103 % of control
- T/C (dose: 15.0 mg/kg/injection, schedule: Q01DX005 (ip), vehicle: Klucel + Tween-80): 97 % of control
- T/C (dose: 30.0 mg/kg/injection, schedule: Q01DX005 (ip), vehicle: Klucel + Tween-80): 98 % of control

SMILES: O=C(O)CN(CC(=O)O)Cc1cc(=O)[nH]c(=O)[nH]1
- T/C [15]: 91 % of control
- T/C [1]: 95 % of control
- T/C [2]: 97 % of control

SMILES: C=C(C)C(=NC(C)(C)C)Nc1ccc(Cl)cc1
- T/C (dose: 12.5 mg/kg/injection, schedule: Q01DX005 (ip), vehicle: Klucel (hydroxypropylcellulose) (HPC)): 104 % of control and 106 % of control
- T/C (dose: 25.0 mg/kg/injection, schedule: Q01DX005 (ip), vehicle: Klucel (hydroxypropylcellulose) (HPC)): 106 % of control and 109 % of control
- T/C [3]: 98 % of control and 100 % of control
- T/C [9]: 110 % of control and 116 % of control and 123 % of control
- T/C [4]: 100 % of control and 102 % of control and 109 % of control
- T/C [10]: 112 % of control and 116 % of control and 120 % of control
- T/C [5]: 109 % of control and 111 % of control and 119 % of control
- T/C [16]: 118 % of control

SMILES: COc1ccc2c(c1)C13C(=O)OC4(C)OC(C)(CC41)C3C2=O (stereo not drawn)
- T/C (dose: 100.0 mg/kg/injection, schedule: Q01DX001 (ip), vehicle: Klucel (hydroxypropylcellulose) (HPC)): 98 % of control
- T/C (dose: 200.0 mg/kg/injection, schedule: Q01DX001 (ip), vehicle: Klucel (hydroxypropylcellulose) (HPC)): 104 % of control
- T/C (dose: 400.0 mg/kg/injection, schedule: Q01DX001 (ip), vehicle: Klucel (hydroxypropylcellulose) (HPC)): 95 % of control

SMILES: Fc1cccc(Cl)c1C(Nc1nccs1)Nc1nccs1
- T/C (dose: 60.0 mg/kg/injection, schedule: Q01DX005 (ip), vehicle: Klucel (hydroxypropylcellulose) (HPC)): 107 % of control
- T/C (dose: 120.0 mg/kg/injection, schedule: Q01DX005 (ip), vehicle: Klucel (hydroxypropylcellulose) (HPC)): 103 % of control
- T/C (dose: 240.0 mg/kg/injection, schedule: Q01DX005 (ip), vehicle: Klucel (hydroxypropylcellulose) (HPC)): 104 % of control
